Assay results as given in PubChem BioAssay AID248 (DTP/NCI, 2004).
Several values for one entry are separate records, joined by “and”; a condition that tells them apart may be missing. Equal values may be shown once. Toxic doses and inconclusive results are not listed.

Tested on: L1210 leukemia ip in BDF1 mice, survival T/C
Assay: NCI In Vivo Anticancer Drug Screen. Data for tumor model L1210 Leukemia (intraperitoneal) in B6D2F1 (BDF1) mice
Details: endpoint: mean survival time, higher = longer survival
How it was run: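 Survival endpoint. Drug-treated group vs vehicle group, expressed as T divided by C. Tumor passaged by transplantation.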

[1] = dose: 100.0 mg/kg/injection, schedule: Q04DX002 (ip), vehicle: Klucel (hydroxypropylcellulose) (HPC)
[2] = dose: 200.0 mg/kg/injection, schedule: Q04DX002 (ip), vehicle: Klucel (hydroxypropylcellulose) (HPC)
[3] = dose: 400.0 mg/kg/injection, schedule: Q04DX002 (ip), vehicle: Klucel (hydroxypropylcellulose) (HPC)
[4] = dose: 100.0 mg/kg/injection, schedule: Q01DX009 (ip), vehicle: saline with Tween-80
[5] = dose: 200.0 mg/kg/injection, schedule: Q01DX009 (ip), vehicle: saline with Tween-80
[6] = dose: 400.0 mg/kg/injection, schedule: Q01DX009 (ip), vehicle: saline with Tween-80

`O=C(Nc1cc(Cl)ccc1O)Nc1cc(C(F)(F)F)ccc1Cl` was tested, and the T/C (dose: 100.0 mg/kg/injection, schedule: Q01DX001 (ip), vehicle: carboxymethylcellulose (CMC)) was 101 % of control, the T/C (dose: 100.0 mg/kg/injection, schedule: Q01DX009 (ip), vehicle: carboxymethylcellulose (CMC)) was 95 % of control and 103 % of control and the T/C (dose: 100.0 mg/kg/injection, schedule: Q04DX002 (ip), vehicle: carboxymethylcellulose (CMC)) was 97 % of control and 104 % of control. For the same molecule, the T/C (dose: 100.0 mg/kg/injection, schedule: Q04DX003 (ip), vehicle: carboxymethylcellulose (CMC)) was 97 % of control, the T/C (dose: 200.0 mg/kg/injection, schedule: Q01DX001 (ip), vehicle: carboxymethylcellulose (CMC)) was 97 % of control and the T/C (dose: 200.0 mg/kg/injection, schedule: Q01DX009 (ip), vehicle: carboxymethylcellulose (CMC)) was 97 % of control and 103 % of control. The T/C (dose: 200.0 mg/kg/injection, schedule: Q04DX002 (ip), vehicle: carboxymethylcellulose (CMC)) was 97 % of control and 104 % of control, the T/C (dose: 200.0 mg/kg/injection, schedule: Q04DX003 (ip), vehicle: carboxymethylcellulose (CMC)) was 97 % of control and the T/C (dose: 400.0 mg/kg/injection, schedule: Q01DX001 (ip), vehicle: carboxymethylcellulose (CMC)) was 98 % of control. The T/C (dose: 400.0 mg/kg/injection, schedule: Q01DX009 (ip), vehicle: carboxymethylcellulose (CMC)) was 92 % of control and 97 % of control, the T/C (dose: 400.0 mg/kg/injection, schedule: Q04DX002 (ip), vehicle: carboxymethylcellulose (CMC)) was 98 % of control and 90 % of control and the T/C (dose: 400.0 mg/kg/injection, schedule: Q04DX003 (ip), vehicle: carboxymethylcellulose (CMC)) was 100 % of control.
With `Nc1nc2ncsc2c(=O)[nH]1` the T/C (dose: 100.0 mg/kg/injection, schedule: Q01DX001 (ip), vehicle: saline with Tween-80) was 89 % of control, the T/C (dose: 200.0 mg/kg/injection, schedule: Q01DX001 (ip), vehicle: saline with Tween-80) was 89 % of control and the T/C (dose: 400.0 mg/kg/injection, schedule: Q01DX001 (ip), vehicle: saline with Tween-80) was 102 % of control.
With `CSc1nc(N)nc2nc(C)c(C)cc12` the T/C (dose: 100.0 mg/kg/injection, schedule: Q01DX Z (ip), vehicle: methylcellulose (MC)) was 90 % of control and the T/C (dose: 200.0 mg/kg/injection, schedule: Q01DX Z (ip), vehicle: methylcellulose (MC)) was 89 % of control.
In the case of `C/C(=N/NC(=O)c1ccccc1)c1ccc(Cl)cc1Cl`, the T/C (dose: 100.0 mg/kg/injection, schedule: Q04DX003 (ip), vehicle: other) is reported as 97 % of control and the T/C (dose: 200.0 mg/kg/injection, schedule: Q04DX003 (ip), vehicle: other) is reported as 108 % of control.
With `O=S(=O)(O)c1ccc2cc(O)c(O)cc2c1` the T/C [1] was 91 % of control, the T/C [2] was 95 % of control and the T/C [3] was 95 % of control.
With `O=NN(CCCl)C(=O)NC1c2cc(Cl)ccc2-c2c(Cl)cc(Cl)cc21` (stereo unspecified) the T/C (dose: 6.6 mg/kg/injection, schedule: Q04DX003 (ip), vehicle: Klucel (hydroxypropylcellulose) (HPC)) was 103 % of control, the T/C (dose: 9.9 mg/kg/injection, schedule: Q04DX003 (ip), vehicle: Klucel (hydroxypropylcellulose) (HPC)) was 116 % of control and the T/C (dose: 12.5 mg/kg/injection, schedule: Q01DX009 (ip), vehicle: Klucel (hydroxypropylcellulose) (HPC)) was 115 % of control. For the same molecule, the T/C (dose: 20.0 mg/kg/injection, schedule: Q04DX003 (ip), vehicle: Klucel (hydroxypropylcellulose) (HPC)) was 102 % of control, the T/C (dose: 25.0 mg/kg/injection, schedule: Q01DX009 (ip), vehicle: Klucel (hydroxypropylcellulose) (HPC)) was 124 % of control and the T/C (dose: 40.0 mg/kg/injection, schedule: Q04DX003 (ip), vehicle: Klucel (hydroxypropylcellulose) (HPC)) was 119 % of control. The T/C (dose: 50.0 mg/kg/injection, schedule: Q01DX009 (ip), vehicle: Klucel (hydroxypropylcellulose) (HPC)) was 232 % of control, the T/C (dose: 100.0 mg/kg/injection, schedule: Q01DX009 (ip), vehicle: Klucel (hydroxypropylcellulose) (HPC)) was 252 % of control and the T/C (dose: 115.0 mg/kg/injection, schedule: Q04DX003 (ip), vehicle: Klucel (hydroxypropylcellulose) (HPC)) was 154 % of control. The T/C (dose: 200.0 mg/kg/injection, schedule: Q01DX001 (ip), vehicle: Klucel (hydroxypropylcellulose) (HPC)) was 153 % of control, the T/C (dose: 200.0 mg/kg/injection, schedule: Q01DX009 (ip), vehicle: Klucel (hydroxypropylcellulose) (HPC)) was 267 % of control and the T/C (dose: 200.0 mg/kg/injection, schedule: Q04DX003 (ip), vehicle: Klucel (hydroxypropylcellulose) (HPC)) was 174 % of control. The T/C (dose: 400.0 mg/kg/injection, schedule: Q01DX001 (ip), vehicle: Klucel (hydroxypropylcellulose) (HPC)) was 170 % of control, the T/C (dose: 400.0 mg/kg/injection, schedule: Q01DX009 (ip), vehicle: Klucel (hydroxypropylcellulose) (HPC)) was 273 % of control and the T/C (dose: 400.0 mg/kg/injection, schedule: Q04DX003 (ip), vehicle: Klucel (hydroxypropylcellulose) (HPC)) was 157 % of control and 261 % of control.
`Cc1cccc2c1CCC(OC(=O)c1cc([N+](=O)[O-])cc([N+](=O)[O-])c1)C2` (stereo unspecified) was tested, and the T/C [4] was 86 % of control, the T/C [5] was 169 % of control and the T/C [6] was 95 % of control.
`CCCCSC(N)=O` was tested, and the T/C [4] was 103 % of control, the T/C [1] was 94 % of control and the T/C [5] was 105 % of control. The T/C [2] was 97 % of control, the T/C [6] was 119 % of control and the T/C [3] was 90 % of control.
